The source of these data is PubChem BioAssay (NCI).

Holding throughout (assay): growth of human tumour cells (NCI), 48 h
Experiment [1] concerns M14 melanoma.
For experiment [2], the system named is OVCAR-3 ovarian.
The test system of experiment [3] is NCI-H460 lung.
Experiment [4] relates to OVCAR-8 ovarian.
Experiment [5] concerns EKVX NSCLC.
The subject of experiment [6] is LOX IMVI melanoma.
The test system of experiment [7] is SW-620 colon.
The subject of experiment [8] is MDA-MB-435.
Experiment [9] has as its system KM12 colon.
Experiment [10] concerns SN12C renal.
For experiment [11], the system named is OVCAR-4 ovarian.
Experiment [12] relates to HT29 colon.
In experiment [13] the test system is SF-268 CNS.
Experiment [14] concerns SK-MEL-28 melanoma.
Experiment [15] relates to HL-60(TB) leukemia.
For experiment [16], the system named is HCT-116 colon.
Experiment [17] deals with NCI-H226 lung.
Experiment [18] concerns RXF 393 renal.
In experiment [19] the test system is MALME-3M melanoma.
In experiment [20] the test system is NCI-H23 lung.

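Five compound concentrations were applied to cells in 96-well plates for 48 hours; endpoints were derived by simple linear interpolation of the resulting dose-response curve. Definition used: TGI = concentration required for complete inhibition of growth.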

On to `Cc1ccc2nc(Cl)c(/C=N/N3C(=O)/C(=C/c4cccc([N+](=O)[O-])c4)N=C3c3ccccc3)cc2c1`, for which the TGI in experiment [1], in experiment [2], in experiment [3], in experiment [4], in [5] and in [6] was more than 100 µM throughout. Also, the TGI is more than 100 µM in experiment [7]; 54.5 µM in experiment [8]; more than 100 µM in experiment [9]; more than 100 µM in [10]; more than 100 µM in [11]; more than 100 µM in experiment [12]. The TGI in experiment [13], in experiment [14], in experiment [15] and in experiment [16] was more than 100 µM each time.
For the compound `CC(=O)OC/C=C/[C@H](O[Si](C)(C)C(C)(C)C)[C@@H](O)/C=C/COC(C)=O`, the TGI in experiment [1], in experiment [2], in [3], in [17], in [4] and in [5] was more than 100 µM throughout. Further, the TGI in experiment [6], in experiment [7], in experiment [18], in [8], in [9] and in experiment [19] was more than 100 µM throughout. Further, the TGI in [10], in experiment [11], in experiment [12], in experiment [13], in [14] and in experiment [20] was more than 100 µM throughout. This compound yielded a TGI in experiment [16] of more than 100 µM.
For the compound `CC(Cc1ccccc1)Nc1ncnc2c1ncn2C1OC(CO)CC1O` (configuration not stated), the TGI in experiment [1], in experiment [2], in experiment [3], in [17], in experiment [4] and in [5] was more than 100 µM throughout. The TGI in [6], in [7], in experiment [18], in experiment [8], in experiment [9] and in [19] was more than 100 µM throughout. Moreover, the TGI in experiment [10], in [11], in experiment [12], in experiment [13], in experiment [14] and in experiment [20] was more than 100 µM in each case. In experiment [16], this compound had a TGI of more than 100 µM.
Turning to `O=C1Nc2ccccc2C1=Nc1cccc2ncccc12`, the TGI in [1] was more than 100 µM; in [2], more than 100 µM; in experiment [3], more than 100 µM; in [17], more than 100 µM; in experiment [4], more than 100 µM; in experiment [5], 85.6 µM. Also, the TGI is more than 100 µM in experiment [6]; more than 100 µM in [7]; more than 100 µM in [18]; 42.3 µM in experiment [8]; more than 100 µM in experiment [9]; more than 100 µM in experiment [19]. Also, the TGI in experiment [10], in [11], in experiment [12], in experiment [13], in [14] and in [20] was more than 100 µM throughout. This compound returned a TGI in [16] of more than 100 µM.
As for `NC(=O)Nc1ccc(S(=O)(=O)Nc2ccc(S(N)(=O)=O)cc2)cc1`, the TGI in experiment [1], in experiment [2], in [3], in experiment [17], in experiment [4] and in experiment [5] was more than 100 µM each time. In addition, the TGI in experiment [6], in experiment [7], in experiment [18], in experiment [8], in experiment [9] and in [19] was more than 100 µM each time. The TGI was more than 100 µM in experiment [10]; more than 100 µM in experiment [11]; more than 100 µM in [12]; 2.59 µM in experiment [13]; more than 100 µM in experiment [14]; more than 100 µM in [20]. The TGI in [16] is more than 100 µM.
For `CC1OC(OC2C(O)COC(OC3C(C)OC(OC4C(OC(=O)[C@]56CCC(C)(C)C[C@@H]5C5=CCC7[C@@]8(C)C[C@H](O)[C@H](OC9OC(CO)C(O)C(OC%10OC(CO)C(O)C(O)C%10O)C9O)[C@@](C)(CO)[C@@H]8CC[C@@]7(C)[C@]5(C)CC6)OCC(O)C4O)C(O)C3OC3OCC(O)(CO)C3O)C2O)C(O)C(O)C1O` (some centres not stated), the TGI in [1] came to 13 µM; in experiment [2], 19.1 µM; in experiment [3] it was 36.2 µM; in experiment [17], 23.4 µM; in experiment [4], 18.9 µM; in [5], 13.2 µM. In addition, the TGI is 17.8 µM in experiment [6]; 15.7 µM in [7]; 17.2 µM in experiment [18]; 24.4 µM in experiment [8]; 26.2 µM in [9]; 13.2 µM in experiment [19]. Besides, the TGI in experiment [10] is 12 µM; in [11], 19.5 µM; in [13], 20.3 µM; in [14], 14 µM; in [20], 14.3 µM; in [16], 32.2 µM.
Take `O=S1(=O)OCCOS(=O)(=O)C1S(=O)(=O)c1ccc2ccccc2c1`: the TGI in [1], in experiment [2], in experiment [3], in experiment [4], in experiment [5] and in experiment [6] was more than 100 µM in each case. Also, the TGI in experiment [7], in experiment [8], in [9], in experiment [19], in experiment [10] and in [11] was more than 100 µM each time. The TGI in experiment [12], in experiment [14], in experiment [15], in experiment [20] and in experiment [16] was more than 100 µM throughout.
As for `CC12O[C@]3([C@H](C(=O)N4CCOC43C)[C@H]1Cl)[C@H]1O[C@H]12` (some centres not stated), the TGI in [1], in experiment [2], in [3], in [17], in experiment [4] and in experiment [5] was more than 100 µM each time. In addition, the TGI in experiment [6], in experiment [7], in experiment [8], in experiment [9], in experiment [10] and in [11] was more than 100 µM each time. Further, the TGI in [12], in experiment [13], in [14], in experiment [15] and in [16] was more than 100 µM each time.
With `CCCc1cc(=O)oc2c3c(c4c(c12)OC(C)(C)CC4)O[C@@H](C)[C@H](C)[C@H]3O`, the TGI in experiment [1] is 28.3 µM; in experiment [2], 32.7 µM; in [3], 24.2 µM; in experiment [17], 31.6 µM; in experiment [4] it was 29.9 µM; in experiment [5], 29.4 µM. In addition, the TGI in experiment [6] was found to be 30 µM; in [7], 36.8 µM; in experiment [18], 27.1 µM; in experiment [8], 22.1 µM; in experiment [9] it was 29.9 µM; in experiment [19], 28 µM. The TGI in experiment [10] is 18.9 µM; in experiment [11] it was 22.5 µM; in [12], 20.7 µM; in [13] it was 30.3 µM; in experiment [14] it was 42 µM; in experiment [20] it was 25 µM. This compound showed a TGI in [16] of 22.2 µM.
Consider `O=C(O)c1cc(CC2Cc3cc4c(cc3C2=O)CCC4)cc2c1CCC2` (configuration not stated), for which the TGI in experiment [1], in experiment [2], in experiment [3], in experiment [17], in experiment [4] and in experiment [5] was more than 100 µM in each case. Also, the TGI in experiment [6], in [7], in [8], in [9], in experiment [19] and in [10] was more than 100 µM each time. For the same compound, the TGI in experiment [11], in [12], in experiment [13], in experiment [14], in experiment [15] and in experiment [20] was more than 100 µM each time. The same compound came in with a TGI in experiment [16] of more than 100 µM.
Take `C=C(CCOC)CCC1CCCCC(=C)[C@H]1OC(C)=O` (some centres not stated): the TGI in [1], in [2], in experiment [3], in experiment [17], in experiment [4] and in [5] was more than 100 µM throughout. Also, the TGI in experiment [6], in experiment [7], in [8], in experiment [9], in experiment [10] and in experiment [11] was more than 100 µM throughout. The TGI in experiment [12], in experiment [13], in experiment [14], in [15], in [20] and in experiment [16] was more than 100 µM in each case.
On to `CCOC(=O)c1cc(=O)c2ccnc3c2n1CCS3`, for which the TGI in experiment [1], in experiment [2], in experiment [3], in experiment [17], in [4] and in experiment [5] was more than 100 µM in each case. For the same compound, the TGI in experiment [6], in [7], in [8], in [9], in [10] and in [12] was more than 100 µM each time. Moreover, the TGI in [13], in experiment [14], in [15], in [20] and in [16] was more than 100 µM throughout.
As to `COc1ccc([C@H]2CC(=O)C[C@H](c3ccc(OC)cc3)C23C(=O)c2ccccc2C3=O)cc1`, the TGI in experiment [1], in experiment [3], in [17], in experiment [4], in experiment [5] and in experiment [6] was more than 100 µM throughout. Moreover, the TGI is more than 100 µM in experiment [7]; 16 µM in [18]; 5.95 µM in experiment [8]; more than 100 µM in [9]; more than 100 µM in experiment [19]; more than 100 µM in experiment [10]. Further, the TGI in experiment [11], in experiment [12], in experiment [13], in experiment [14], in experiment [20] and in experiment [16] was more than 100 µM throughout.
For `COC(=O)C1=C(C)C(=O)[C@]23C(CCCC[C@H]12)C(=O)[C@H](C(=O)OC)C3C` (some centres not stated), the TGI in [1], in experiment [2], in [3], in experiment [17], in experiment [4] and in experiment [5] was more than 100 µM throughout. Further, the TGI in experiment [6], in [7], in experiment [8], in [9], in experiment [19] and in experiment [10] was more than 100 µM in each case. Also, the TGI in experiment [11], in experiment [12], in [13], in experiment [14], in [15] and in experiment [20] was more than 100 µM throughout. In [16], this compound showed a TGI of more than 100 µM.
In the case of `CN1CC[C@]23c4c5ccc(O)c4O[C@H]2C(O)CC[C@@]3(O)[C@H]1C5` (some centres not stated), the TGI in experiment [1], in experiment [2], in experiment [17], in experiment [4], in experiment [5] and in experiment [6] was more than 100 µM throughout. In addition, the TGI in [7], in [8], in experiment [9], in experiment [19], in experiment [10] and in experiment [11] was more than 100 µM each time. Also, the TGI in [12], in [13], in experiment [14], in experiment [15], in [20] and in experiment [16] was more than 100 µM in each case.
